Laboratory results from PubChem BioAssay (NCI).
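These data come from cells grown in 96-well plates and exposed to compound for 48 hours at five concentrations. TGI: total growth inhibition.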

Columns and labels:
Assay in all cases: NCI tumour cell line growth inhibition, 48 h
MDA-MB-435 = system: MDA-MB-435
EKVX NSCLC = system: EKVX NSCLC
HL-60(TB) leukemia = system: HL-60(TB) leukemia
HOP-92 NSCLC = system: HOP-92 NSCLC
COLO 205 colon = system: COLO 205 colon
MALME-3M melanoma = system: MALME-3M melanoma
SF-268 CNS = system: SF-268 CNS
NCI-H226 lung = system: NCI-H226 lung
786-0 renal = system: 786-0 renal
NCI-H23 lung = system: NCI-H23 lung
SF-295 CNS = system: SF-295 CNS
RXF 393 renal = system: RXF 393 renal
HCC-2998 colon = system: HCC-2998 colon
SK-MEL-2 melanoma = system: SK-MEL-2 melanoma
ACHN renal = system: ACHN renal
OVCAR-5 ovarian = system: OVCAR-5 ovarian
SN12C renal = system: SN12C renal
MCF7 breast = system: MCF7 breast
TK-10 renal = system: TK-10 renal
SK-OV-3 ovarian = system: SK-OV-3 ovarian
SR leukemia = system: SR leukemia
A498 renal = system: A498 renal
SW-620 colon = system: SW-620 colon
NCI/ADR-RES ovarian = system: NCI/ADR-RES ovarian
SNB-19 CNS = system: SNB-19 CNS
NCI-H460 lung = system: NCI-H460 lung
SK-MEL-28 melanoma = system: SK-MEL-28 melanoma
BT-549 breast = system: BT-549 breast
T-47D breast = system: T-47D breast
MDA-MB-231 breast = system: MDA-MB-231 breast
M14 melanoma = system: M14 melanoma
A549 NSCLC = system: A549 NSCLC
UO-31 renal = system: UO-31 renal
MOLT-4 leukemia = system: MOLT-4 leukemia
CAKI-1 renal = system: CAKI-1 renal
OVCAR-8 ovarian = system: OVCAR-8 ovarian
LOX IMVI melanoma = system: LOX IMVI melanoma
HS 578T breast = system: HS 578T breast
HOP-62 NSCLC = system: HOP-62 NSCLC
UACC-257 melanoma = system: UACC-257 melanoma
RPMI-8226 leukemia = system: RPMI-8226 leukemia
CCRF-CEM leukemia = system: CCRF-CEM leukemia
IGROV1 ovarian = system: IGROV1 ovarian
OVCAR-4 ovarian = system: OVCAR-4 ovarian
K-562 leukemia = system: K-562 leukemia
U251 CNS = system: U251 CNS
HCT-15 colon = system: HCT-15 colon
UACC-62 melanoma = system: UACC-62 melanoma
PC-3 prostate = system: PC-3 prostate
MDA-N = system: MDA-N
NCI-H522 lung = system: NCI-H522 lung
SK-MEL-5 melanoma = system: SK-MEL-5 melanoma
DU-145 prostate = system: DU-145 prostate
KM12 colon = system: KM12 colon
HCT-116 colon = system: HCT-116 colon
HT29 colon = system: HT29 colon
SNB-75 CNS = system: SNB-75 CNS
OVCAR-3 ovarian = system: OVCAR-3 ovarian
SF-539 CNS = system: SF-539 CNS

CCOC(=O)C1(C#N)C(C#N)(C#N)C1(C#N)C#N
TGI (MDA-MB-435): > 100 µM | TGI (EKVX NSCLC): > 100 µM | TGI (HL-60(TB) leukemia): > 100 µM | TGI (HOP-92 NSCLC): > 100 µM | TGI (COLO 205 colon): > 100 µM | TGI (MALME-3M melanoma): > 100 µM | TGI (SF-268 CNS): > 100 µM | TGI (NCI-H226 lung): > 100 µM | TGI (786-0 renal): > 100 µM | TGI (NCI-H23 lung): > 100 µM | TGI (SF-295 CNS): > 100 µM | TGI (RXF 393 renal): > 100 µM | TGI (HCC-2998 colon): > 100 µM | TGI (SK-MEL-2 melanoma): > 100 µM | TGI (ACHN renal): > 100 µM | TGI (OVCAR-5 ovarian): > 100 µM | TGI (SN12C renal): > 100 µM | TGI (MCF7 breast): > 100 µM | TGI (TK-10 renal): > 100 µM | TGI (SK-OV-3 ovarian): > 100 µM | TGI (SR leukemia): > 100 µM | TGI (A498 renal): > 100 µM | TGI (SW-620 colon): > 100 µM | TGI (NCI/ADR-RES ovarian): > 100 µM | TGI (SNB-19 CNS): > 100 µM | TGI (NCI-H460 lung): > 100 µM | TGI (SK-MEL-28 melanoma): > 100 µM | TGI (BT-549 breast): > 100 µM | TGI (T-47D breast): > 100 µM | TGI (MDA-MB-231 breast): > 100 µM | TGI (M14 melanoma): > 100 µM | TGI (A549 NSCLC): > 100 µM | TGI (UO-31 renal): > 100 µM | TGI (MOLT-4 leukemia): > 100 µM | TGI (CAKI-1 renal): > 100 µM | TGI (OVCAR-8 ovarian): > 100 µM | TGI (LOX IMVI melanoma): > 100 µM | TGI (HS 578T breast): > 100 µM | TGI (HOP-62 NSCLC): > 100 µM | TGI (UACC-257 melanoma): > 100 µM | TGI (RPMI-8226 leukemia): > 100 µM | TGI (CCRF-CEM leukemia): > 100 µM | TGI (IGROV1 ovarian): > 100 µM | TGI (OVCAR-4 ovarian): > 100 µM | TGI (K-562 leukemia): > 100 µM | TGI (U251 CNS): > 100 µM | TGI (HCT-15 colon): > 100 µM | TGI (UACC-62 melanoma): > 100 µM | TGI (PC-3 prostate): > 100 µM | TGI (MDA-N): > 100 µM | TGI (NCI-H522 lung): > 100 µM | TGI (SK-MEL-5 melanoma): > 100 µM | TGI (DU-145 prostate): > 100 µM | TGI (KM12 colon): > 100 µM | TGI (HCT-116 colon): > 100 µM | TGI (HT29 colon): > 100 µM

CCN(CC)C(=S)N/N=C/c1cc(OC)ccc1O
TGI (MDA-MB-435): > 100 µM | TGI (EKVX NSCLC): > 100 µM | TGI (HL-60(TB) leukemia): 7.44 µM | TGI (COLO 205 colon): > 100 µM | TGI (MALME-3M melanoma): > 100 µM | TGI (SF-268 CNS): 11.3 µM | TGI (NCI-H226 lung): 25.5 µM | TGI (786-0 renal): > 100 µM | TGI (NCI-H23 lung): > 100 µM | TGI (SF-295 CNS): > 100 µM | TGI (RXF 393 renal): > 100 µM | TGI (HCC-2998 colon): 27.8 µM | TGI (SNB-75 CNS): > 100 µM | TGI (SK-MEL-2 melanoma): > 100 µM | TGI (ACHN renal): > 100 µM | TGI (OVCAR-5 ovarian): > 100 µM | TGI (SN12C renal): 90.6 µM | TGI (MCF7 breast): 9.84 µM | TGI (OVCAR-3 ovarian): > 100 µM | TGI (SF-539 CNS): 36 µM | TGI (TK-10 renal): > 100 µM | TGI (SK-OV-3 ovarian): > 100 µM | TGI (SR leukemia): 8.9 µM | TGI (A498 renal): 18 µM | TGI (SW-620 colon): > 100 µM | TGI (NCI/ADR-RES ovarian): 40.4 µM | TGI (SNB-19 CNS): > 100 µM | TGI (NCI-H460 lung): 14.3 µM | TGI (SK-MEL-28 melanoma): > 100 µM | TGI (BT-549 breast): > 100 µM | TGI (T-47D breast): > 100 µM | TGI (MDA-MB-231 breast): > 100 µM | TGI (M14 melanoma): 16.6 µM | TGI (A549 NSCLC): > 100 µM | TGI (UO-31 renal): 6.12 µM | TGI (MOLT-4 leukemia): 28.6 µM | TGI (OVCAR-8 ovarian): > 100 µM | TGI (LOX IMVI melanoma): 12.5 µM | TGI (HS 578T breast): > 100 µM | TGI (HOP-62 NSCLC): > 100 µM | TGI (UACC-257 melanoma): > 100 µM | TGI (CCRF-CEM leukemia): 5.71 µM | TGI (IGROV1 ovarian): > 100 µM | TGI (OVCAR-4 ovarian): > 100 µM | TGI (K-562 leukemia): > 100 µM | TGI (U251 CNS): > 100 µM | TGI (HCT-15 colon): > 100 µM | TGI (UACC-62 melanoma): 21.6 µM | TGI (PC-3 prostate): > 100 µM | TGI (MDA-N): > 100 µM | TGI (NCI-H522 lung): > 100 µM | TGI (SK-MEL-5 melanoma): 70.5 µM | TGI (DU-145 prostate): > 100 µM | TGI (KM12 colon): > 100 µM | TGI (HCT-116 colon): > 100 µM | TGI (HT29 colon): > 100 µM
